In publication PMC6261607, “Novel high–throughput myofibroblast assays identify agonists with therapeutic potential in pulmonary fibrosis that act via EP2 and EP4 receptors” (PLoS ONE, 2018):
Read-outs that look alike come from different tables or passages of the source.

Key:
[1] = test system: normal human lung fibroblasts (NHLF); assay: Impedance measurement of TGF–β1–induced myofibroblast transition (IPQA), standard assay; assay type: cell-based
Description: (§1) To measure dynamic cell shape and adhesion changes during fibrotic transdifferentiation, NHLF were seeded at a density of 20,000 cells per well in FGM–2 growth medium (Lonza) containing 100 units / ml of penicillin and 100 μg / ml of streptomycin into E–plates with continued impedance signal measurement (xCELLigence system, Roche Applied Science). After overnight growth, the medium was exchanged for FBM (Lonza) supplemented with 100 units / ml of penicillin and 100 μg / ml of streptomycin and 0.1% faf BSA and cells were starved for 32 h. Compound dilution series were added and myofibroblast transition was induced by adding TGF–β1 at a concentration of 5 ng / ml, followed by continued impedance sampling for up to 48 h. For data analysis, impedance raw traces were normalized to the time point of compound addition and the baseline response (DMSO, non–TGF–β1 treated cells) was subtracted. In some cases, impedance values at defined time points were used to generate concentration–response curves to determine compound potency and efficacy using GraphPad Prism software version 7 (GraphPad Software Inc).

[2] = test system: TGF–β1–induced NHLF myofibroblasts; assay: cells; assay type: cell-based
Description: as §1
(§2) To identify compounds with potential to revert differentiated myofibroblasts to fibroblasts the assay procedures were modified. After 24 h starvation, NHLF cells were stimulated with 5 ng / ml TGF–β1 for 24 h. At t = 24 h TGF–β1 was removed and either vehicle (DMSO) or compounds were added and incubated with the cells for a further 72 h.

[3] = test system: α–SMA protein in TGF–β1–induced NHLF myofibroblasts; assay: MS/MS α–SMA, NHLF myofibroblast reversal assay; assay type: cell-based, human; settings: Homo sapiens
Description: Cell culture medium was removed and cells were lysed on ice by adding 5 μl / well of pre–cooled protein extraction buffer containing 10 mM Tris–HCl (pH 8.0), 6 M urea and 2 M thiourea and shaking on ice on a plate shaker at 600 rpm for 30 min.
Cell lysate was transferred to a 96–well polypropylene–PCR–plate. 15 μl / well denaturation buffer (6 M urea, 50 mM ammonium bicarbonate) and 2 μl / well of 50 mM TCEP were added and samples were denatured for 1 h at 60°C using the Veriti 96–well Fast Thermal Cycler System (Applied Biosystem) with a heated lid. Plates were allowed to cool to RT. Subsequently, 2 μl of 100 mM iodoacetamide were added per well to derivatize cysteine residues. Plates were then sealed and vortexed for 2 min in the dark and incubated for 30 min at 37°C in a thermal cycler with a heated lid. 90 μl of 50 mM ammonium bicarbonate pH 7.8 were added, followed by the addition of 10 μl of trypsin at 0.02 μg / ml. Samples were trypsin–digested overnight at 37°C in a thermal cycler with heated lid. […] Samples were desalted under vacuum using an Oasis HLB 96–well (30 μm particle size, 5 mg sorbent / well) reverse phase cartridge according to the manufacturer’s instructions and eluted with 170 μl of 90% acetonitrile, 0.1% formic acid. Samples were dried down with a flow of nitrogen at 40°C, left to cool to RT and re–suspended in 40 μl 5% acetonitrile, 0.1% formic acid on a plate shaker set to 1400 rpm for 5 min. Plates were centrifuged at 4,000 rpm for 10 min and 2 times 12 μl / well of supernatant were transferred into separate 96–well plates (Greiner Bio–One), sealed and stored at 4°C until analyzed by MS / MS.
Surrogate tryptic peptides were chosen for detection of COL1 (COL1A1), α–SMA (ACTA) and tubulin (TBA1A1) and crude synthetic peptides were purchased from Thermo Fischer. After several rounds of optimization following standard workflows, […] (COL1 / COL1A1), […] (α–SMA / ACTA) and […] LC–MS / MS analysis was performed on a RapidFire™ RF360 system (Agilent Technologies) coupled to an API 5500 (ABSciex) with positive ion electrospray ionization. […] Detection was performed using multiple reaction monitoring (MRM) mode to monitor parent⟶product ion transitions (m / z). […] The source parameters were curtain gas (CUR) nitrogen: 20 psig; collision gas (CAD): 7 psig; ion source gas 1: 50.0 psig; ion source gas 2: 50.0 psig; ion spray voltage (IS): 5500 V; turbo heater temperature (TEM): 600°C; entrance potential (EP): 10V. Peak areas for COL1A1 and ACTA were normalized by dividing by TBA1A peak area.
as §2

[4] = Fibroblast, 5 ng/ml TGF–β1, compound added with TGF–β1, impedance at t = 20 h post TGF–β1, mean ± SD, read-out: Impedance IC50
[5] = Homo sapiens, Fibroblast, 5 ng/ml TGF–β1, t = 20 h, representative experiment of supplementary figure, read-out: IC50 on impedance (curve of a single experiment)
[6] = reversal assay: 24 h 5 ng/ml TGF–β1, washed, then compound, impedance data at t = 20 h
[7] = reversal assay: 24 h 5 ng/ml TGF–β1, washed, 72 h compound, normalized to tubulin, read-out: MS / MS α–SMA IC50
[8] = NHLF pre–stimulated 24 h with 5 ng/ml TGF–β1, representative experiment, S7 Fig D, read-out: IC50, reversal of α–SMA (curve of a single experiment)

Row | Compound | IC50 [1, 4] [µM] | IC50 [1, 5] [µM] | IC50 [2, 6] [µM] | IC50 [3, 7] [µM] | cytotoxic concentration ([2]; human, 72 h) | IC50 [3, 8] [µM] | IC50 ([2]; Homo sapiens, reversal assay, impedance at t = 72 h post TGF–β1, n = 2) [µM] | EC50 of impedance change ([1]; impedance at t = 20 h, mean ± SD, n = 8) [ng/mL] | IC50 ([1]; 5 ng/ml TGF–β1, compound added with TGF–β1, impedance at t = 20 h post TGF–β1, mean ± SD, read-out: Impedance IC50) [µM]
1 | CC(C)(C)c1ccc(CN(Cc2cccc(OCC(=O)O)c2)S(=O)(=O)c2cccnc2)cc1 [Evatanepag] | 0.0067 ± 0.003 | 0.005 | 0.014 | 0.016 |  |  |  |  | 
2 | O=C(CC1NCCCC1O)Cn1cnc2cc(Br)c(Cl)cc2c1=O (centres unmarked) [Halofuginone] | 0.096 ± 0.01 | 0.026 | > 1 | 0.102 ± 0.087 | ≥ 10’000 nM | 0.04 |  |  | 
3 | C[C@]12CC[C@H](O)C[C@H]1CC[C@@H]1[C@@H]2C[C@@H](O)[C@]2(C)[C@@H](C3=CC(=O)OC3)CC[C@]12O [Digoxigenin] | 0.25 ± 0.14 | 0.154 | 0.14 | 0.048 |  |  |  |  | 
4 | COC(=O)c1ccc2c(c1)NC(=O)/C2=C(\Nc1ccc(N(C)C(=O)CN2CCN(C)CC2)cc1)c1ccccc1 [Nintedanib] | 0.3 ± 0.11 |  | > 10 | > 10 |  |  |  |  | 
5 | Cc1cccc(-c2[nH]c(CNc3ccccc3F)nc2-c2ccc3ncnn3c2)n1 [EW–7197] | 0.047 ± 0.025 |  | > 10 | 0.073 ± 0.031 |  | 0.051 | 0.047 ± 0.001 |  | 
6 | TGF–β1: transforming growth factor–β1, stimulus of myofibroblast differentiation |  |  |  |  |  |  |  | 0.03 ± 0.01 | 
7 | CCCCC[C@H](O)/C=C/[C@H]1[C@H](O)CC(=O)[C@@H]1CCCCCCC(=O)O [Alprostadil] | 0.0006 ± 0.0001 |  | 0.0009 ± 0.0002 | 0.001 |  |  |  |  | 
8 | CCCCC[C@H](O)/C=C/[C@H]1[C@H](O)CC(=O)[C@@H]1C/C=C\CCCC(=O)O [PGE2, prostaglandin E2] | 0.0005 ± 0.0001 | 0.0004 | 0.0007 | 0.0008 |  | 0.00082 |  |  | 
9 | O=C1CC[C@H](/C=C/[C@@H](O)Cc2ccccc2)N1CCCCCCc1nn[nH]n1 [Merck–19a] |  |  |  |  |  |  |  |  | 0.0104 ± 0.0011
